From patent US11800868B2, “Isoflavonoid compounds and use thereof” (Novozymes BioAg A/S, priority 2004, dated 2023)

Experiments:
[1] = tested on: tomato; experiment: Signal applied to tomato seedling roots transplanted into soil inoculated with soybean rhizobia (field)
[2] = tested on: potato; experiment: Growth promotion of potato tubers with signals, field; assay type: in vivo
Protocol: Notes: • 1. Microtubers (cv. Bintje, tuber size from 0.5-0.7 g) were soaked in each test solution overnight at 25° C. in the incubator. Treatment rate was 50 ml/treatment, and 50 ml water as control. • 2. […] Treated potato tubers were planted in soil 10-15 cm deep, 10 tubers in 10 M^2 plot and supplied 500 ml of water to each tuber in ground after planting. • 4. Planted date: Aug. 20, 2004 and harvested date: Oct. 15, 2004.

O=c1c(-c2ccc(O)cc2)coc2cc(O)cc(O)c12 [genistein]
Fruit/plot ([1]; 100 ml at 1 μM/plant, Early): 67.75
Fruit/plot % vs ctrl ([1]; 100 ml at 1 μM/plant, Early): 16.81%
Kg/plot ([1]; 100 ml at 1 μM/plant, Early): 12.02 Kg/plot
Kg/plot % vs ctrl ([1]; 100 ml at 1 μM/plant, Early): 15.47%
Fruit/plot ([1]; 100 ml at 1 μM/plant, Normal): 241.5
Fruit/plot % vs ctrl ([1]; 100 ml at 1 μM/plant, Normal): 10.27%
Kg/plot ([1]; 100 ml at 1 μM/plant, Normal): 27.10 Kg/plot
Kg/plot % vs ctrl ([1]; 100 ml at 1 μM/plant, Normal): 5.86%
Fruit/plot ([1]; 100 ml at 10 μM/plant, Early): 66.25
Fruit/plot % vs ctrl ([1]; 100 ml at 10 μM/plant, Early): 14.22%
Kg/plot ([1]; 100 ml at 10 μM/plant, Early): 11.64 Kg/plot
Kg/plot % vs ctrl ([1]; 100 ml at 10 μM/plant, Early): 11.82%
Fruit/plot ([1]; 100 ml at 10 μM/plant, Normal): 217.75
Fruit/plot % vs ctrl ([1]; 100 ml at 10 μM/plant, Normal): −0.57%
Kg/plot ([1]; 100 ml at 10 μM/plant, Normal): 25.91 Kg/plot
Kg/plot % vs ctrl ([1]; 100 ml at 10 μM/plant, Normal): 1.21%
Fruit/plot ([1]; 100 ml at 50 μM/plant, Early): 71
Fruit/plot % vs ctrl ([1]; 100 ml at 50 μM/plant, Early): 22.41%
Kg/plot ([1]; 100 ml at 50 μM/plant, Early): 12.85 Kg/plot
Kg/plot % vs ctrl ([1]; 100 ml at 50 μM/plant, Early): 23.44%
Fruit/plot ([1]; 100 ml at 50 μM/plant, Normal): 198.5
Fruit/plot % vs ctrl ([1]; 100 ml at 50 μM/plant, Normal): −9.36%
Kg/plot ([1]; 100 ml at 50 μM/plant, Normal): 25.77 Kg/plot
Kg/plot % vs ctrl ([1]; 100 ml at 50 μM/plant, Normal): 0.66%
tuber size ([2]; 300-500 μM): larger tuber size
potato tuber yield increase over control ([2]; microtubers soaked in 300 μM solution overnight): up to 17.7%
